The record followed here is PubChem BioAssay (NCI).

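Cultured in 96-well plates, cells were exposed to test compound for 48 hours across five concentrations. TGI is the concentration that stops growth completely.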

Among the test systems are SNB-78 CNS; KM20L2 colon; M19-MEL melanoma; DMS 273 small cell lung; DLD-1 colon; DMS 114 small cell lung; LXFL 529 NSCLC; XF 498 CNS; RXF-631 renal.
What all share (experiment): growth of human tumour cells (NCI), 48 h

Consider `Cc1c(/C=N/NC(=O)c2ccccc2)c(=O)n(-c2ccccc2)n1C`, for which the TGI in the experiment with SNB-78 CNS, with KM20L2 colon, with M19-MEL melanoma, in the experiment with DMS 273 small cell lung, with DLD-1 colon and in the experiment on DMS 114 small cell lung was over 100 µM throughout. The TGI with LXFL 529 NSCLC and in the experiment with XF 498 CNS was over 100 µM throughout.

Consider `Cc1ccc(C2(C)NC(=S)N(NC(N)=S)C2=S)cc1` (stereo unspecified), for which the TGI with KM20L2 colon, in the experiment with RXF-631 renal, in the experiment on M19-MEL melanoma, in the experiment with DMS 273 small cell lung, in the experiment on DLD-1 colon and in the experiment on DMS 114 small cell lung was over 100 µM each time. In addition, the TGI in the experiment with LXFL 529 NSCLC and in the experiment on XF 498 CNS was over 100 µM in each case.

Consider `CC(C)=CCC/C(C)=C/CC/C(C)=C/CC/C=C(\C)CC/C=C(\C)CCC1SC1(C)C` (stereo unspecified), for which the TGI with SNB-78 CNS, with KM20L2 colon, with M19-MEL melanoma, with DMS 273 small cell lung, in the experiment with DLD-1 colon and in the experiment on DMS 114 small cell lung was over 100 µM throughout. The same compound came in with a TGI in the experiment with LXFL 529 NSCLC of over 100 µM.

Turning to `Cc1ccccc1N=Cc1ccc(N(CCC#N)S(=O)(=O)c2ccccc2)cc1`, the TGI with SNB-78 CNS, in the experiment with KM20L2 colon, in the experiment on RXF-631 renal, in the experiment with M19-MEL melanoma, in the experiment with DMS 273 small cell lung and in the experiment on DLD-1 colon was over 100 µM in each case. For the same compound, the TGI in the experiment on DMS 114 small cell lung, with LXFL 529 NSCLC and in the experiment on XF 498 CNS was over 100 µM throughout.

With `CNc1nnnn1C1OC(CO)C(O)C1O` (stereo unspecified), the TGI in the experiment on SNB-78 CNS, in the experiment with KM20L2 colon, in the experiment on RXF-631 renal, in the experiment with M19-MEL melanoma, in the experiment with DMS 273 small cell lung and with DLD-1 colon was over 100 µM throughout. The TGI in the experiment on DMS 114 small cell lung is over 100 µM; in the experiment on LXFL 529 NSCLC it was over 100 µM; in the experiment with XF 498 CNS it was 83.4 µM.

In the case of `O=C1NC2OCC(O)C(O1)C2O` (stereo unspecified), the TGI in the experiment on SNB-78 CNS, in the experiment on KM20L2 colon, with RXF-631 renal, in the experiment on M19-MEL melanoma, with DMS 273 small cell lung and in the experiment with DLD-1 colon was over 100 µM each time. Besides, the TGI in the experiment on DMS 114 small cell lung, with LXFL 529 NSCLC and in the experiment on XF 498 CNS was over 100 µM throughout.

On to `CN(C)CCSC(=Nc1ccccc1)N1C=COC=C1`, for which the TGI in the experiment with SNB-78 CNS is 90.1 µM; in the experiment with KM20L2 colon it was over 100 µM; in the experiment on M19-MEL melanoma, 32.5 µM; with DMS 273 small cell lung it was 35.7 µM; in the experiment with DLD-1 colon, 32.4 µM; in the experiment on DMS 114 small cell lung, 27.9 µM. In addition, the values for the TGI in the experiment on LXFL 529 NSCLC and in the experiment with XF 498 CNS were 30.6 µM and 85.3 µM, respectively.

`C=C1C(=O)OC2C[C@H](C)C3CC(=O)C(C)=C3CC12` (stereo partly specified): the TGI was determined as 44.1 µM in the experiment with SNB-78 CNS; 33.5 µM with KM20L2 colon; 27.8 µM in the experiment with M19-MEL melanoma; 32.5 µM in the experiment with DMS 273 small cell lung; 21.5 µM in the experiment on DLD-1 colon; 32.2 µM with DMS 114 small cell lung. Further, the TGI in the experiment with LXFL 529 NSCLC is 24.7 µM; with XF 498 CNS it was 30.1 µM.

`CC1=C2C(=O)C3[C@@H](CCC4=CC(=O)CC[C@@]43C)C2CC[C@]12O[C@@H]1C[C@H](C)CN[C@H]1[C@H]2C` (stereo partly specified): the TGI with KM20L2 colon is over 100 µM; in the experiment on M19-MEL melanoma, over 100 µM; in the experiment on DMS 273 small cell lung it was 42.8 µM; in the experiment on DLD-1 colon, over 100 µM; with DMS 114 small cell lung it was 28.9 µM; in the experiment with LXFL 529 NSCLC, over 100 µM. The same compound gave a TGI with XF 498 CNS of 94.4 µM.

As for `Cc1ccc(S(=O)(=O)c2c(N)c3nccn3c3nc4ccccc4nc23)cc1`, the TGI in the experiment on SNB-78 CNS, in the experiment on KM20L2 colon, in the experiment on M19-MEL melanoma, in the experiment on DMS 273 small cell lung, in the experiment with DLD-1 colon and in the experiment on DMS 114 small cell lung was over 100 µM each time. For the same compound, the TGI in the experiment on LXFL 529 NSCLC and with XF 498 CNS was over 100 µM in each case.
